The results in this text go back to patent US20110021530A1, “PYRIDAZINE DERIVATIVES AND THEIR USE AS THERAPEUTIC AGENTS IN THE TREATMENT OF SKIN DISORDERS” (XENON PHARMACEUTICALS INC., priority 2008, published 2011).

One data set relates to HEPG2. The data set can be described thus: HEPG2 IC50. The data set is classed as cell-based. The following applies: Homo sapiens.
The next data set addresses T1, SCD (Mus musculus, UniProt P13516).
T1 sequence (P13516 1-355): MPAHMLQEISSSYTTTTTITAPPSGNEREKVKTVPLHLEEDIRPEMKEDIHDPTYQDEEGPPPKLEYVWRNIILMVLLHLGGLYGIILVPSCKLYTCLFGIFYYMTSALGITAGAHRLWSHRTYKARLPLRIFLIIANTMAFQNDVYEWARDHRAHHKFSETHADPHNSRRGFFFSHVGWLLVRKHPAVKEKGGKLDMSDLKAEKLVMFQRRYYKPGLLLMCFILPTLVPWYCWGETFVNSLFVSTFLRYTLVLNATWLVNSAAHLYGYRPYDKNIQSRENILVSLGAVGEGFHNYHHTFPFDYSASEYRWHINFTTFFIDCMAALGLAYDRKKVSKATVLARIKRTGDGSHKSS
The data set is described as follows: Mouse SCD IC50 determination for compounds active in the HTS assay. It is filed as biochemical.

Data set [1] addresses T2, stearoyl-CoA desaturase (SCD) (Mus musculus, UniProt P13516).
T2 construct: Reactions are started by adding 2 mg of microsomal protein; from tissue; host or cells: liver microsomes of male ICR mice on a high-carbohydrate, low fat diet
T2 sequence (P13516 1-355): T1 sequence (P13516 1-355)
The data set can be described thus: HTS microsomal assay of stearoyl-CoA desaturase inhibition using mouse liver microsomes. The data set is classed as biochemical. The settings on record: % SCD enzyme activity remaining at 10 μM test compound. How it is done:
The absence of mitochondrial contamination is enzymatically assessed.
The compounds are analyzed with an HTS microsomal assay.

Consider `O=C(NCC1CC1)c1ccc(N2CCN(C(=O)c3ccccc3C(F)(F)F)CC2)nn1` [6-[4-(2-TRIFLUOROMETHYLBENZOYL)PIPERAZIN-1-YL]PYRIDAZINE-3-CARBOXYLIC ACID CYCLOPROPYLMETHYLAMIDE], for which the IC50 amounted to 5520 nM in the data set with HEPG2 and 8690 nM against SCD. In addition, in data set [1], the “Mouse microsome SCD activity % remaining @ 10 μM” value is on record as 49%.
With `COc1ccc(CCNC(=O)c2ccc(N3CCN(C(=O)c4ccccc4C(F)(F)F)CC3)nn2)cc1` [6-[4-(2-TRIFLUOROMETHYLBENZOYL)PIPERAZIN-1-YL]PYRIDAZINE-3-CARBOXYLIC ACID [2-(4-METOXYPHENYL)ETHYL]AMIDE], the half-maximal inhibitory concentration (IC50) in the data set on HEPG2 was 80 nM; against SCD, 1630 nM. In addition, in data set [1], the “Mouse microsome SCD activity % remaining @ 10 μM” value is on record as 7%.
The matching figures for `O=C(NCCC1CC1)c1ccc(N2CCN(C(=O)c3ccoc3C(F)(F)F)CC2)nn1` [6-[4-(2-TRIFLUOROMETHYLFURAN-3-CARBONYL)PIPERAZIN-1-YL]PYRIDAZINE-3-CARBOXYLIC ACID (2-CYCLOPROPYLETHYL)AMIDE]: 290 nM, 260 nM and 7%.
The matching figures for `CCCCCNC(=O)Nc1ccc(N2CCN(C(=O)c3ccccc3C(F)(F)F)CC2)nn1` [1-PENTYL-3-{6-[4-(2-TRIFLUOROMETHYLBENZOYL)PIPERAZIN-1-YL]PYRIDAZIN-3-YL}UREA]: 40 nM, 10 nM and 6%.
Consider `CC(C)(C)C(O)CNC(=O)c1ccc(N2CCN(C(=O)c3cc(F)ccc3C(F)(F)F)CC2)nn1` (centres unmarked) [Example 15.30, 6-[4-(5-FLUORO-2-TRIFLUOROMETHYLBENZOYL)PIPERAZIN-1-YL]PYRIDAZINE-3-CARBOXYLIC ACID (2-HYDROXY-3,3-DIMETHYLBUTYL)AMIDE], for which the melting point lay in the range of 186 to 189 °C.
Same read-out and setting: under `O=C(NCCc1ccc2c(c1)OCO2)c1ccc(N2CCN(C(=O)c3ccccc3C(F)(F)F)CC2)nn1` [Example 30.1, 6-[4-(2-TRIFLUOROMETHYLBENZOYL)PIPERAZIN-1-YL]PYRIDAZINE-3-CARBOXYLIC ACID (2-BENZO[1,3]DIOXOL-5-YL-ETHYL)AMIDE] stands 162 to 164 °C.
Turning to `CC(C)CCNC(=O)c1ccc(N2CCN(C(=O)c3ccccc3[N+](=O)[O-])CC2)nn1` [6-[4-(2-NITROBENZOYL)PIPERAZIN-1-YL]PYRIDAZINE-3-CARBOXYLIC ACID (3-METHYLBUTYL)AMIDE], the results for the IC50 with HEPG2 and on SCD were 120 nM and 80 nM, respectively. In addition, the “Mouse microsome SCD activity % remaining @ 10 μM” value in data set [1] is listed as 8%.
`O=C(NCCCc1ccc(F)cc1)Nc1ccc(N2CCN(C(=O)c3ccccc3C(F)(F)F)CC2)nn1` [1-[3-(4-Fluorophenyl)propyl]-3-{6-[4-(2-trifluoromethylbenzoyl)piperazin-1-yl]pyridazin-3-yl}urea]: the IC50 stood at 350 nM in the data set with HEPG2 and 1370 nM against SCD. The “Mouse microsome SCD activity % remaining @ 10 μM” value in data set [1] is 14%.
For `O=C(NCCc1ccccc1)Nc1ccc(N2CCN(C(=O)c3ccccc3C(F)(F)F)CC2)nn1`, the figures for the IC50 with HEPG2 and at SCD were 230 nM and 60 nM, respectively. Further, the “Mouse microsome SCD activity % remaining @ 10 μM” value in data set [1] was 15%.
Turning to `O=C(NCCC1CC1)c1ccc(N2CCN(C(=O)CC(O)(C(F)(F)F)C(F)(F)F)CC2)nn1` [6-[4-(4,4,4-TRIFLUORO-3-HYDROXY-3-TRIFLUOROMETHYLBUTYRYL)PIPERAZIN-1-YL]PYRIDAZINE-3-CARBOXYLIC ACID (2-CYCLOPROPYLETHYL)AMIDE], the half-maximal inhibitory concentration (IC50) in the data set on HEPG2 stood at 120 nM; at SCD it was 480 nM. The “Mouse microsome SCD activity % remaining @ 10 μM” value in data set [1] is recorded as 8%.
Turning to `O=C(NCCC1CC1)c1ccc(N2CCN(Cc3cc(Cl)ccc3Cl)CC2)nn1` [6-[4-(2,5-DICHLOROBENZYL)PIPERAZIN-1-YL]PYRIDAZINE-3-CARBOXYLIC ACID (2-CYCLOPROPYLETHYL)AMIDE], the IC50 in the data set on HEPG2 turned out to be 60 nM; on SCD, 180 nM. Also, the “Mouse microsome SCD activity % remaining @ 10 μM” value in data set [1] was 8%.
The matching figures for `CC(=CC(=O)N1CCN(c2ccc(C(=O)NCCC(C)C)nn2)CC1)C(F)(F)F` [6-[4-(4,4,4-TRIFLUORO-3-METHYLBUT-2-ENOYL)PIPERAZIN-1-YL]PYRIDAZINE-3-CARBOXYLIC ACID (3-METHYLBUTYL)AMIDE]: 540 nM, 340 nM and 9%.
As to `CC(C)CCNC(=O)c1ccc(N2CCN(C(=O)c3ccccc3N)CC2)nn1` [6-[4-(2-AMINOBENZOYL)PIPERAZIN-1-YL]PYRIDAZINE-3-CARBOXYLIC ACID (3-METHYLBUTYL)AMIDE], the IC50 in the data set with HEPG2 is 640 nM; on SCD, 450 nM. Also, the “Mouse microsome SCD activity % remaining @ 10 μM” value in data set [1] is 23%.
Turning to `CC(C(=O)N1CCN(c2ccc(C(=O)NCCC3CC3)nn2)CC1)(C(F)(F)F)C(F)(F)F` [6-[4-(3,3,3-TRIFLUORO-2-METHYL-2-TRIFLUOROMETHYLPROPIONYL)PIPERAZIN-1-YL]PYRIDAZINE-3-CARBOXYLIC ACID (2-CYCLOPROPYLETHYL)AMIDE], the IC50 in the data set with HEPG2 came to 120 nM; at SCD, 110 nM. Besides, in data set [1], the “Mouse microsome SCD activity % remaining @ 10 μM” value was 8%.
Taken in the same sequence, the figures for `O=C(NCCC1CC1)c1ccc(N2CCN(Cc3cc(F)ccc3C(F)(F)F)CC2)nn1` [6-[4-(5-FLUORO-2-TRIFLUOROMETHYLBENZYL)PIPERAZIN-1-YL]PYRIDAZINE-3-CARBOXYLIC ACID (2-CYCLOPROPYLETHYL)AMIDE] were 20 nM, 20 nM and 3%.
The matching figures for `CCOC(=O)CCNC(=O)Nc1ccc(N2CCN(C(=O)c3ccccc3C(F)(F)F)CC2)nn1` [3-(3-{6-[4-(2-TRIFLUOROMETHYLBENZOYL)PIPERAZIN-1-YL]-PYRIDAZIN-3-YL}-UREIDO)PROPIONIC ACID ETHYL ESTER]: 5430 nM, 2770 nM and 18%.
Taken in the same sequence, the figures for `O=C(NCCC1CC1)c1ccc(N2CCN(C(=O)c3cc(C(F)(F)F)ccc3C(F)(F)F)CC2)nn1` [6-[4-(2,5-BIS-TRIFLUOROMETHYLBENZOYL)PIPERAZIN-1-YL]PYRIDAZINE-3-CARBOXYLIC ACID (2-CYCLOPROPYLETHYL)AMIDE] were 70 nM, 150 nM and 6%.
With `O=C(NCCC1CC1)c1ccc(N2CCN(Cc3ccc(Cl)cc3Cl)CC2)nn1` [6-[4-(2,4-DICHLOROBENZYL)-PIPERAZIN-1-YL]PYRIDAZINE-3-CARBOXYLIC ACID (2-CYCLOPROPYLETHYL)AMIDE], the half-maximal inhibitory concentration (IC50) in the data set with HEPG2 is 210 nM; on SCD, 230 nM. Moreover, in data set [1], the “Mouse microsome SCD activity % remaining @ 10 μM” value is 8%.
In the case of `CC(C)CCNC(=O)c1ccc(N2CCN(C(=O)c3cnn(C)c3C(F)(F)F)CC2)nn1` [6-[4-(1-METHYL-5-TRIFLUOROMETHYL-1H-PYRAZOLE-4-CARBONYL)PIPERAZIN-1-YL]-PYRIDAZINE-3-CARBOXYLIC ACID (3-METHYLBUTYL)AMIDE], the IC50 in the data set on HEPG2 is 440 nM; on SCD, 350 nM. In data set [1], the “Mouse microsome SCD activity % remaining @ 10 μM” value is on record as 15%.
Consider `CC(C)CCNC(=O)c1ccc(N2CCN(C(=O)c3cnccc3C(F)(F)F)CC2)nn1` [6-[4-(4-TRIFLUOROMETHYLPYRIDINE-3-CARBONYL)PIPERAZIN-1-YL]PYRIDAZINE-3-CARBOXYLIC ACID (3-METHYLBUTYL)AMIDE], for which the concentration for half-maximal inhibition (IC50) with HEPG2 stood at 240 nM; against SCD, 80 nM. Besides, the “Mouse microsome SCD activity % remaining @ 10 μM” value in data set [1] came to 8%.
For the compound `O=C(NCc1ccc(F)cc1)Nc1ccc(N2CCN(C(=O)c3ccccc3C(F)(F)F)CC2)nn1` [1-(4-FLUOROBENZYL)-3-{6-[4-(2-TRIFLUOROMETHYLBENZOYL)PIPERAZIN-1-YL]-PYRIDAZIN-3-YL}UREA], the IC50 in the data set with HEPG2 was determined as 30 nM; against SCD, 70 nM. Further, the “Mouse microsome SCD activity % remaining @ 10 μM” value in data set [1] is reported as 6%.
The matching figures for `O=C(NCCCC1CC1)c1ccc(N2CCN(Cc3cc(F)ccc3C(F)(F)F)CC2)nn1` [6-[4-(5-FLUORO-2-TRIFLUOROMETHYLBENZYL)PIPERAZIN-1-YL]PYRIDAZINE-3-CARBOXYLIC ACID (3-CYCLOPROPYLPROPYL)AMIDE]: 60 nM, 180 nM and 8%.
Consider `CCCCNC(=O)Nc1ccc(N2CCN(C(=O)c3ccccc3C(F)(F)F)CC2)nn1` [1-BUTYL-3-{6-[4-(2-TRIFLUOROMETHYLBENZOYL)PIPERAZIN-1-YL]PYRIDAZIN-3-YL}UREA], for which the IC50 with HEPG2 was 210 nM; against SCD, 70 nM. In data set [1], the “Mouse microsome SCD activity % remaining @ 10 μM” value turned out to be 13%.
Taken in the same sequence, the figures for `O=C(NCc1ccccc1)Nc1ccc(N2CCN(C(=O)c3ccccc3C(F)(F)F)CC2)nn1` [1-BENZYL-3-{6-[4-(2-TRIFLUOROMETHYLBENZOYL)PIPERAZIN-1-YL]PYRIDAZIN-3-YL}UREA] were 50 nM, 40 nM and 8%.
The matching figures for `O=C(NCCC1CC1)c1ccc(N2CCN(Cc3cc(Cl)ccc3C(F)(F)F)CC2)nn1` [6-[4-(5-CHLORO-2-TRIFLUOROMETHYLBENZYL)PIPERAZIN-1-YL]PYRIDAZINE-3-CARBOXYLIC ACID (2-CYCLOPROPYLETHYL)AMIDE]: 40 nM, 60 nM and 7%.

The IC50 is the concentration at which inhibition is half-maximal. A low value points to higher potency. Broadly, the melting point is the temperature, or range, at which the solid turns liquid.
